These results are taken from patent US12102675B2, “MRNA therapeutic compositions” (Nutcracker Therapeutics, Inc., priority 2022, dated 2024).

Entries after “also recorded” stand apart in the source; their conditions may differ.

The subject of data set [1] is recurrent or metastatic cervical cancer, tumors express PD-L1 (CPS≥1). To be noted: single agent, disease progression on or after chemotherapy; cited from earlier work.
Data set [2] concerns persistent, recurrent, or metastatic cervical cancer, tumors express PD-L1 (CPS≥1). To be noted: in combination with chemotherapy, with or without bevacizumab; cited from earlier work.
A short description of data set [3]: Rat toxicology study, control mRNA in DV-140-F2, intramuscular. The class given is in vivo, Sprague-Dawley rats. To be noted: 4 doses in 2 weeks. As for the experimental part:
Briefly, Sprague-Dawley rats (n=8) were treated with a control mRNA formulated in DV-140-F2 at 0.03 or 0.3 mg/kg or PBS vehicle. Injections were done 4 times over the course of 13 days and were administered intramuscularly into the hind limb. Whole blood was taken for hematology, and serum taken for clinical chemistry and cytokine analysis at 6 hours post the first dose and final dose, and 2 weeks post the final dose. Additionally, 2 of the animals were sacrificed at 6 hours post the final dose and 2 weeks post final dose and a gross necropsy was performed. Tissue samples were retained and histopathology run on select organs.

In data set [4] the test system is primary human T cell. Nature of the data set: Human T cell proliferation in response to ENG or WT hLIGHT mRNA with hIL-12 mRNA. To be noted: HEK293 transfected with hIL-12 mRNA plus LIGHT mRNA, 1:5 with T cells, anti-CD3 30 or 100 ng/mL, 4 days; relative to IL-12 and WT hLIGHT. It counts as cell-based. As for the experimental part: This study was designed to compare the ability of ENG and WT hLIGHT mRNAs in combination with hIL-12 mRNA to stimulate primary human T cell proliferation. Human T cells were isolated from PBMCs from 1 healthy donor and stained with CellTrace Violet. HEK293 cells were transfected with hIL-12 mRNA (RNA-683) and WT hLIGHT (RNA-786) or ENG hLIGHT (RNA-1359) mRNA formulated in Lipofectamine MessengerMAX (0.5 ng each mRNA per 1000 cells). Control cells were transfected with noncoding mRNA control in the same way. Transfected HEK293 cells were cocultured with the T cells in a 1:5 ratio in the presence of 30 ng/mL or 100 ng/mL anti-CD3 antibody to mimic antigen specific TCR engagement for 4 days at 37° C., 5% CO2. CD8+ T cell proliferation was assessed by flow cytometry and the proliferation index was calculated. […] The results are shown in FIG. 10A, where ENG=engineered; HEK=human embryonic kidney; IL-12=interleukin-12; PBMC=peripheral blood mononuclear cell; WT=wildtype. The data in FIG. 10A represent mean±standard deviation (n=4). Statistical analysis was performed by unpaired student's t-test (P<0.05).

Data set [5] concerns CD3+ T cells. As to the kind of experiment: T cell proliferation in co-culture with HEK cells transfected with LIGHT variants. It counts as cell-based, human. To be noted: vs soluble (Wt) LIGHT, FIGS. 9A, 9B. As for the experimental part: LIGHT variants were formulated in MessengerMax mRNA Transfection Reagent. Human embryonic kidney (HEK) cells were transfected with the LIGHT variant constructs for cell surface expression of LIGHT. CellTrace Violet (Thermo Fischer Scientific) was used to label CD3+ T cells from the resulting peripheral blood mononuclear cells (PBMC). 100 ng/mL of soluble CD3 Antibody was added to the resulting labeled CD3+ T cells. The T cell proliferation and interferon-gamma (IFN-7) secretion was evaluated about 5 days of co-culture.

Data set [6] deals with transfected cells. As to the kind of experiment: Surface expression of soluble or membrane-stabilized LIGHT by flow cytometry using HVEM binding. It counts as cell-based. To be noted: compared to WT LIGHT mRNA. The text has this: FIGS. 14A and 14B depict the assessment of surface expression of soluble LIGHT or membrane-stabilized LIGHT by flow cytometry using HVEM binding.
In general terms: Flow cytometry measures light scatter and fluorescence of single cells or particles in a stream.

Data set [7] has as its target T1, HVEM (Homo sapiens, UniProt Q92956).
T1 construct: host or cells: HVEM reporter cell line (not further described)
T1 sequence (Q92956 39-283): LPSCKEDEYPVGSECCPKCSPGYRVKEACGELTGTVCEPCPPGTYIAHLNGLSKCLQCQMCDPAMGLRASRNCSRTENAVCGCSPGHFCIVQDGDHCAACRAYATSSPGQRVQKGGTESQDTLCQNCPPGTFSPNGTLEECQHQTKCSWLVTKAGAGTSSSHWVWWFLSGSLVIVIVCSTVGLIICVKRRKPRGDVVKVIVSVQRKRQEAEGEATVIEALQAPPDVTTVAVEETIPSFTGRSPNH
As to the kind of experiment: HVEM activation by LIGHT, HVEM reporter cell line. To be noted: FIGS. 1A, 1B, 12. The class given is cell-based. The text has this: FIG. 12 illustrates pre-blocking of soluble LIGHT in HVEM co-HEK transfected cells.
FIGS. 13A-13C are a comparison of HVEM activation with supernatant (blue) or cells (orange) for soluble LIGHT or membrane-stabilized LIGHT.

The mark [8] stands for this setting: High dose in rat, 100 μg RNA IM.
The mark [9] stands for this setting: Therapeutic dose scaled for rat, 30 μg RNA IM.

With pembrolizumab [KEYTRUDA], in data set [1], the objective response entry was “around 14%”. In data set [2], the overall survival result was “improvements in overall survival”.

For the molecule `CCCCCCCCCCN(CC(N)=O)C(=O)CN(CCCCCCCCCC)C(=O)CN(CCCCCCCCCC)C(=O)CN(CCCCCCCCCC)C(=O)CNCCO` [Compound 140, N-(2-amino-2-oxoethyl)-N-decyl-2-(N-decyl-2-(N-decyl-2-(N-decyl-2-((2-hydroxyethyl)amino)acetamido)acetamido)acetamido)acetamide], in data set [3] (setting [8]), the Gross organ pathology entry was “None observed” and the “Injection site reactions or other clinical observations” value is reported as “None observed”. In addition, in data set [3] (setting [9]), the Gross organ pathology result is recorded as “None observed” and the “Injection site reactions or other clinical observations” value was “None observed”.

B1: ENG hLIGHT: mRNA SEQ ID NO: 18 encoding human LIGHT with amino acids #66-92 replaced by 10 amino acid linker (SEQ ID NO: 17) (nucleic acid)
chain: AGGCAUAGAAGUCGAGACACAGCCACUAAGUAAGCCACCAUGGAGGAGAGCGUGGUGCGGCCUAGCGUGUUCGUGGUCGACGGCCAGACCGACAUCCCCUUCACCAGACUGGGAAGAAGCCACAGAAGGCAGUCUUGCUCCGUGGCCAGAGUGGGCCUGGGCCUGCUCCUGCUGCUGAUGGGCGCUGGCCUGGCCGUGCAAGGCUGGUUCCUGCUGCAGCUGCACUGGCGGCUGGGCAGCAGCGCCUCUACCGAUAAGACCCACACCGUGAACCCUGCCGCCCACCUGACCGGCGCCAACAGCUCUCUGACCGGAUCUGGCGGACCUCUGCUGUGGGAGACACAGCUGGGCCUUGCUUUUCUGCGGGGCCUGAGCUACCACGACGGCGCUCUGGUGGUUACAAAGGCCGGCUACUACUACAUCUACAGCAAGGUGCAGCUGGGAGGCGUGGGUUGUCCACUGGGACUGGCCAGCACAAUCACACACGGCCUUUAUAAGCGGACCCCUAGAUACCCCGAGGAACUGGAACUGCUGGUCUCCCAGCAGAGCCCUUGCGGCAGAGCCACAAGCAGCAGCAGAGUGUGGUGGGACAGCUCAUUCCUGGGCGGCGUGGUGCAUCUGGAAGCCGGCGAGAAAGUGGUGGUCAGAGUGCUGGACGAGAGACUGGUGCGGCUGAGAGAUGGGACCCGCUCCUACUUCGGCGCCUUUAUGGUGUGAUAAGCGCCGCCUCCGGGACAGUGCACCCAGGCUGCGGCCCCUCCCCCGUCCUGGAGGUUCCCCAGCCCCACUUACCGCUUAAUGCGCCAAUAAACCAAUGAACGAAGCAAAAAAAAAAAAAAAAAAAAAAAAAAAAAAAAAAAAAAAAAAAAAAAAAAAAAAAAAAAAAAAAAAAAAAAAAAAAAAAAAAAAAAAAAAAAAAAAAAAAAAAAAAAAAAAAAAAAAAAAAAAAAAAAAAAAAAAAAAAAAAAAAAAAAAAAAAAAAAAAAAAAAAAAA
modifications: LIGHT ICD TM 1-66 RLG … LIGHT 92-240 1359, aka 1495 nt
Turning to B1, the “CD8+ T cell proliferation and survival” value in data set [4] is “increased CD8+ T cell proliferation and survival”. The T-cell proliferation result is “increase of T-cell proliferation” in data set [5] (listed as 1359) and “increased T cell proliferation” in data set [5] (listed as ENG LIGHT mRNA). In data set [6], the “surface expression and bioactivity on transfected cells” value was “higher surface expression and bioactivity”.

B2: soluble LIGHT: Wild-type soluble human LIGHT (SEQ ID NO: 1) (protein)
chain: MEESVVRPSVFVVDGQTDIPFTRLGRSHRRQSCSVARVGLGLLLLLMGAGLAVQGWFLLQLHWRLGEMVTRLPDGPAGSWEQLIQERRSHEVNPAAHLTGANSSLTGSGGPLLWETQLGLAFLRGLSYHDGALVVTKAGYYYIYSKVQLGGVGCPLGLASTITHGLYKRTPRYPEELELLVSQQSPCGRATSSSRVWWDSSFLGGVVHLEAGEEVVVRVLDERLVRLRDGTRSYFGAFMV
modifications: Human Wild Type LIGHT (786) aa
Regarding B2, the “effect of soluble LIGHT on HVEM binding and signaling by membrane-stabilized LIGHT” value in data set [7] was “decreases the ability of membrane-stabilized LIGHT to activate HVEM; also recorded: competes for HVEM binding and reduces signaling by membrane-stabilized LIGHT”.
